Experimental data reported in US7855076B2, “Use of discoidin domain receptor 1 (DDR1) and agents that affect the DDR1/collagen pathway” (The United States of America as represented by the …, priority 2002, dated 2010).

How the values were obtained:
Assay type in all cases: cell-based, human
DDR1 mRNA = DDR1 mRNA expression in PBMC by Northern blotting; settings: 8 hours, TNF-α 5 ng/ml, IL-1β 10 ng/ml, IFN-γ 50 U/ml, GM-CSF 10 ng/ml, LPS 1 μg/ml, PHA 5 μg/ml
Procedure: PMN and PBMC were maintained at a density of 5×10^6 cells/ml in the complete medium in six-well tissue culture cluster (Coster, Cambridge, Mass.; 3 ml/well). Total RNA was extracted from each culture by using TRIZOL® Reagent. PolyA mRNA was purified on Oligotex columns (Qiagen, Valencia, Calif.). Northern blot analysis was performed as described (Yoshimura, J. Immunol. 150:5025, 1993), except that ULTRAhyb (Ambion) was used. A human DDR1 cDNA (757-bp) was obtained by PCR from a U-105 human glioblastoma cell line cDNA library and was ligated into the EcoRI/HindIII site of the pBluescript (Stratagene, La Jolla, Calif.). The sense primer was 5′-[…]-3′ (SEQ ID NO: 2; corresponding to residues between 68 and 87 in the nucleotide sequence of the trkE cDNA, GenBank accession number X74979) and the antisense primer was 5′-[…]-3′ (SEQ ID NO: 3; corresponding to residues between 805 and 824 in the nucleotide sequence of the trkE cDNA).
Freshly isolated PBMC expressed only a low level of DDR1 mRNA. The expression level was increased about eightfold when the cells were incubated in either RPMI 1640 or RPMI 1640 containing 10% FCS.

DDR1 = test: Cell-surface DDR1 expression on PMN by flow cytometry; settings: 24 hours
Procedure: PMN were incubated in presence of IFN-γ or GM-CSF for 24 hours and the expression of cell-surface DDR1 was measured by flow cytometry using an antibody raised against the extracellular domain of the receptor. One hundred thousand cells were suspended in 50 μl of cold PBS containing 0.1% NaN3, […] BSA and 200 μg/ml human IgG in a Falcon 2052, tube, and incubated for 10 minutes on ice. One μg of anti-DDR1 rabbit polyclonal antibody raised aginst the N-terminus of DDR1 (Transgenic, Inc., Kumamoto, Japan), or control mouse IgG was added to each tube and the cells were incubated for another 15 minutes on ice. The cells were washed with PBS, and then incubated with 1 μg of FITC-conjugated goat anti-mouse IgG for 15 minutes on ice. At the end of incubation, PI was added to each tube (100 μM). The cells were washed by PBS, and subsequently analyzed by using a FACS scan (Becton Dickinson). Dead cells, determined by the incorporation of PI, were gated out. Results were processed by using the Cellquest software (Becton Dickinson).

DDR1 protein = DDR1 protein expression in leukocytes by immunoprecipitation and Western blotting
Procedure: For Western blot analysis, cell lysates were prepared from freshly isolated PBMC, PBMC incubated overnight in RPMI 1640 containing 10% FCS, and MCF-7 cells. Cells were lysed on ice for 20 minutes in a buffer containing 50 mM Hepes, 150 mM NaCl, 1% Triton X-100, 10% glycerol, 10 mM NaF, 1 mM ethylenediamine tetraacetic acid, […], 1 mg/ml leupeptin, 1 mM phenylmethylsulfonyl fluoride, 1 mg/ml aprotinin, and 1 mg/ml pepstatin A. The lysates were spun, and the supernatants were collected. The samples were incubated with approximately 20 μl packed volume of PGS for 1 hour at 4° C. After centrifugation, supernatants were collected, mixed with 1 μg/ml normal rabbit IgG or polyclonal anti-human DDR1 IgG, and incubated for 1 hour at 4° C. PGS (20 μl) was then added and incubated for another 1 hour. IgG-coupled PGS was washed with the buffer containing 50 mM Hepes, 150 mM NaCl, 0.1% Triton X-100, 10% glycerol buffer three times, and 20 μl double-strength sample buffer (20% glycerol, 6% sodium dodecylsulfate (SDS), 10% 2-mercaptoethanol) was added. The samples were boiled for 10, minutes. Eluted proteins were analyzed on 7.5% polyacrylamide gels by SDS polyacrylamide gel electrophoresis (SDS-PAGE) and transferred electrophoretically to nitrocellulose membranes (Amersham, Arlington Heights, Ill.) at 200 mA for 2 hours by a semi-dry system. The membranes were incubated with polyclonal anti-human DDR1 or anti-phosphotyrosine IgG, followed by sheep anti-mouse IgG coupled with horseradish peroxidase (Amersham). Peroxidase activity was visualized by the Enhanced Chemiluminescence Detection System (Amersham).
There was no detectable DDR1 protein in freshly isolated PBMC. DDR1 protein was detected clearly after overnight incubation in RPMI 1640 containing 10% FCS. In order to study the kinetics of DDR1 protein expression, PBMC were incubated with or withour addition of TNF-α (5 ng/ml), or GM-CSF (10 ng/ml) for 36 hours and cell lysates were prepared. Cell lysates were subjected to immunoprecipitation with anti-DDR1 IgG or control IgG. […]

THP-1 cells [1] = test: Cell migration assay, 24-well BioCoat Insert Chamber; settings: parental, mock-infected and DDR1a-overexpressing THP-1 cells; MCP-1 10 ng/ml in outer wells, membrane only, 3 hours
Procedure: Migration of each cell type in response to medium (open column) or MCP-1 (closed column) was measured in the 24-well BioCoat Insert Chamber as described in Example 1 below. In FIG. 3A, results are shown from experiments where inner wells and outer wells were separated by a membrane only. Chambers were incubated at 37° C. for 3 hours. In FIG. 3B, results are shown from experiments where approximately 3 mm of collagen lattice was created above the membrane. Chambers were incubated at 37° C. for 8 hours. The number of migrated cells was counted in each 400× magnified field. The results were presented as migration index denoting the fold increase of cell migration over control (the number of migrated parental cells=1). Data are representative of three experiments with two independent clones overexpressing either DDR1, a or DDR1b.
The cell migration assay was performed by using the 24-well BioCoat Insert Chamber (Becton Dickinson, Bedford, Mass.). […] After a 3-hour incubation at 37° C., the numbers of cells that were adhering on the other side of the membrane and also had fallen into the outer wells were counted. […] After an 8-hour incubation at 37° C., the numbers of cells that were adhering on the other side of the membrane and also had fallen into the outer wells were counted. […]

THP-1 cells [2] = test: Adherence of THP-1 cells to coated plates; settings: plates coated with fibronectin; DDR1a- and DDR1b-overexpressing cells
Procedure: 5×10^5 cells/ml were cultured on either BSA (10 mg/ml)- or collagen (20 μg/ml) and BSA-coated plates for 30 (FIG. 2A) or 120 minutes (FIG. 2B) at 37° C. in a 5% CO2 humidified incubator. Normal mouse IgG or anti-β1 integrin blocking IgG was added to measure the effect of β1 integrin in the assay. The number of adherent cells in each 400× visual field was counted. The results are presented as means ±SE of four individual fields. Data are representative of three experiments with two independent clones overexpressing either DDR1a or DDR1b.
To determine the effects of collagen on the functions of DDR1a- and DDR1b-overexpressing THP-1 cells, the cells were incubated on collagen-coated plastic plates. Twenty-four-well plates were coated with 100 μl/well human collagen type I (20 μg/ml) overnight at 4° C., and then with 200 μl/well 10 mg/ml bovine serum albumin (BSA) for 1 hour at 37° C. Cells were plated at the cell density of 1×10^5 cells/ml to the coated wells and were incubated for 30 minutes at 37° C. in 5% CO2 humidified atmosphere. Nonadherent cells were removed by washing three times with PBS. Cells that remained on the coated surface were considered to be adherent, and the number of cells in each 400 field was counted. Results were presented as mean ±SE per 400 field.

PMN = test: MCP-1 release by PMN (neutrophils), ELISA
Procedure: Human PMN and peripheral blood mononuclear cells (PBMC) were obtained from heparinized blood from human donors (10 units of heparin per ml of blood). One volume of 5% dextran (T-500 Pharmacia, Piscataway, N.J.) in phosphate buffered saline (PBS) was added to three volumes of blood in 50 ml polypropylene tubes. After a 40 minute incubation at room temperature, the leukocyte-rich plasma layer was removed and overlaid onto Lymphoprep in 50 ml tubes and the tubes were centrifuged at 800×g for 20 minutes at room temperature. PMN were separated from erythrocytes by lysis in 0.2% NaCl, washed in complete medium three times at 4° C. and resuspended in complete medium. PBMC contained in the PMN preparations obtained by this method were less than 0.5% by morphologic examination. Cell viability was higher than 98% by trypan blue staining.
A panel of cytokines was previously tested for their ability to induce MCP-1 production in PMN and it was reported that TNF-α and IFN-γ could cooperate to induce a high level of MCP-1 production (Yamashiro et al., J. Leukoc. Biol. 69:698, 2001). […] The majority of MCP-1 was released between 24 hours and 48 hours, showing a delayed kinetics of MCP-1 release. […] The effect of IFN-γ was dose-dependent.
To confirm that activation of DDR1 was responsible for the increased release of MCP-1 by PMN treated with IFN-γ and collagen, 513 anti-DDR1 Ab was used instead of collagen. The concentrations of MCP-1 were measured in the Lymphokine Testing Laboratory, Clinical Services Program, SAIC-Frederick (Frederick, Md.) with an ELISA kit (R&D Systems) specific for human MCP-1.

## GM-CSF: human recombinant granulocyte macrophage-colony stimulating factor
DDR1 mRNA
  level of DDR1 mRNA expression: further augmented
DDR1
  level of DDR1 expression: slightly increased
DDR1 protein; PBMC, TNF-α 5 ng/ml or GM-CSF 10 ng/ml, 36 hours
  level of DDR1 protein expression: increased
DDR1 protein; monocytes
  DDR1 protein expression: increased

## MCP-1: human recombinant monocyte chemoattractant protein-1
THP-1 cells [1]
  migration of cells: increased two- to threefold

## fibronectin [reference compound]
THP-1 cells [2]
  adherence or shape change: no effect

B1: IFN-γ: human recombinant interferon-γ (protein, UniProt P01579 24-161, looked up)
Interferon gamma: QDPYVKEAENLKKYFNAGHSDVADNGTLFLGILKNWKEESDRKIMQSQIVSFYFKLFKNFKDDQSIQKSVETIKEDMNVKFFNSNKKKRDDFEKLTNYSVTDLNVQRKAIHELIQVMAELSPAAKTGKRKRSQMLFRG
DDR1 mRNA
  level of DDR1 mRNA expression: partially inhibited
DDR1
  level of DDR1 expression: markedly increased
PMN; PMN on collagen-coated plates with IFN-γ
  MCP-1 production: potent synergistic effect
PMN; PMN, IFN-γ alone, uncoated plates
  MCP-1 release: no significant MCP-1 release
PMN; PMN, collagen-coated plates
  dose dependence of effect on MCP-1 release: dose-dependent
